In patent US12077503B2, “Substituted cyclic amides and their use as herbicides” (FMC CORPORATION, priority 2015, dated 2024):

Key:
Type in all cases: in vivo
[1] = tested on: barnyardgrass (Echinochloa crus-galli); assay: Test G Pre-Emergence Protocol; conditions: Echinochloa crus-galli, pre-emergence, 312 h, evaluated after 13 days; for pest or weed control at 15.625 g/ha: 15.625 g ai/ha; for pest or weed control at 15.625 g/ha / pest or weed control at 250 g/ha: read-out: Barnyardgrass damage rating (100=total damage to plant; 0=no damage to plant); for pest or weed control at 62.5 g/ha: 62.5 g ai/ha, 100=total damage to plant, 0=no damage to plant, read-out: Barnyardgrass damage rating; for pest or weed control at 250 g/ha: 250 g ai/ha
Method in brief: (§1)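 One day after sowing, pots are treated with a spray of test compound formulated in acetone/water 50:50 plus 0.5% Tween 20, giving 15.625, 62.5 or 250 g/ha. Evaluation on a 0–100 damage scale follows 13 days of glasshouse growth.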

[2] = tested on: corn (Zea mays); assay: Test G Pre-Emergence Protocol; conditions: Zea mays, pre-emergence, 312 h, evaluated after 13 days; for plant injury at 15.625 g/ha: 15.625 g ai/ha; for plant injury at 15.625 g/ha / plant injury at 250 g/ha: read-out: Corn damage rating (100=total damage to plant; 0=no damage to plant); for plant injury at 62.5 g/ha: 62.5 g ai/ha, 100=total damage to plant, 0=no damage to plant, read-out: Corn damage rating; for plant injury at 250 g/ha: 250 g ai/ha
Method in brief: as §1

[3] = tested on: giant foxtail (Setaria faberi); assay: Test G Pre-Emergence Protocol; conditions: Setaria faberi, pre-emergence, 312 h, evaluated after 13 days; for pest or weed control at 15.625 g/ha: 15.625 g ai/ha; for pest or weed control at 15.625 g/ha / pest or weed control at 250 g/ha: read-out: Foxtail, Giant damage rating (100=total damage to plant; 0=no damage to plant); for pest or weed control at 62.5 g/ha: 62.5 g ai/ha, 100=total damage to plant, 0=no damage to plant, read-out: Foxtail, Giant damage rating; for pest or weed control at 250 g/ha: 250 g ai/ha
Method in brief: as §1

[4] = tested on: ivy-leaved morning glory (Ipomoea hederacea); assay: Test G Pre-Emergence Protocol; conditions: Ipomoea, pre-emergence, 312 h, evaluated after 13 days; for pest or weed control at 15.625 g/ha: 15.625 g ai/ha; for pest or weed control at 15.625 g/ha / pest or weed control at 250 g/ha: read-out: Morningglory, Ivy-leaved damage rating (100=total damage to plant; 0=no damage to plant); for pest or weed control at 62.5 g/ha: 62.5 g ai/ha, 100=total damage to plant, 0=no damage to plant, read-out: Morningglory, Ivy-leaved damage rating; for pest or weed control at 250 g/ha: 250 g ai/ha
Method in brief: as §1

[5] = tested on: redroot pigweed (Amaranthus retroflexus); assay: Test G Pre-Emergence Protocol; conditions: Amaranthus retroflexus, pre-emergence, 312 h, evaluated after 13 days; for pest or weed control at 15.625 g/ha: 15.625 g ai/ha; for pest or weed control at 15.625 g/ha / pest or weed control at 250 g/ha: read-out: Pigweed, Redroot damage rating (100=total damage to plant; 0=no damage to plant); for pest or weed control at 62.5 g/ha: 62.5 g ai/ha, 100=total damage to plant, 0=no damage to plant, read-out: Pigweed, Redroot damage rating; for pest or weed control at 250 g/ha: 250 g ai/ha
Method in brief: as §1

[6] = tested on: velvetleaf (Abutilon theophrasti); assay: Test G Pre-Emergence Protocol; conditions: Abutilon theophrasti, pre-emergence, 312 h, evaluated after 13 days; for pest or weed control at 15.625 g/ha: 15.625 g ai/ha; for pest or weed control at 15.625 g/ha / pest or weed control at 250 g/ha: read-out: Velvetleaf damage rating (100=total damage to plant; 0=no damage to plant); for pest or weed control at 62.5 g/ha: 62.5 g ai/ha, 100=total damage to plant, 0=no damage to plant, read-out: Velvetleaf damage rating; for pest or weed control at 250 g/ha: 250 g ai/ha
Method in brief: as §1

[7] = tested on: barnyardgrass (Echinochloa crus-galli); assay: Test G Post-Emergence Protocol; conditions: Echinochloa crus-galli, post-emergence, 312 h, read-out: Barnyardgrass damage rating; for pest or weed control at 15.625 g/ha: 15.625 g ai/ha, evaluated after 13 days (100=total damage to plant; 0=no damage to plant); for pest or weed control at 62.5 g/ha: 62.5 g ai/ha; for pest or weed control at 62.5 g/ha / pest or weed control at 250 g/ha: evaluated after 13 days, 100=total damage to plant, 0=no damage to plant; for pest or weed control at 250 g/ha: 250 g ai/ha
Method in brief: (§2)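 Sow in soil; grow 8 d (24/16 °C, 14 h light, 65% humidity); spray 15.625/62.5/250 g/ha in acetone:water 50:50 + 0.5% Tween 20; grow on, water twice daily; score damage 0–100 at 13 d.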

[8] = tested on: corn (Zea mays); assay: Test G Post-Emergence Protocol; conditions: Zea mays, post-emergence, 312 h, read-out: Corn damage rating; for plant injury at 15.625 g/ha: 15.625 g ai/ha, evaluated after 13 days (100=total damage to plant; 0=no damage to plant); for plant injury at 62.5 g/ha: 62.5 g ai/ha; for plant injury at 62.5 g/ha / plant injury at 250 g/ha: evaluated after 13 days, 100=total damage to plant, 0=no damage to plant; for plant injury at 250 g/ha: 250 g ai/ha
Method in brief: as §2

[9] = tested on: giant foxtail (Setaria faberi); assay: Test G Post-Emergence Protocol; conditions: Setaria faberi, post-emergence, 312 h, read-out: Foxtail, Giant damage rating; for pest or weed control at 15.625 g/ha: 15.625 g ai/ha, evaluated after 13 days (100=total damage to plant; 0=no damage to plant); for pest or weed control at 62.5 g/ha: 62.5 g ai/ha; for pest or weed control at 62.5 g/ha / pest or weed control at 250 g/ha: evaluated after 13 days, 100=total damage to plant, 0=no damage to plant; for pest or weed control at 250 g/ha: 250 g ai/ha
Method in brief: as §2

[10] = tested on: ivy-leaved morning glory (Ipomoea hederacea); assay: Test G Post-Emergence Protocol; conditions: Ipomoea, post-emergence, 312 h, read-out: Morningglory, Ivy-leaved damage rating; for pest or weed control at 15.625 g/ha: 15.625 g ai/ha, evaluated after 13 days (100=total damage to plant; 0=no damage to plant); for pest or weed control at 62.5 g/ha: 62.5 g ai/ha; for pest or weed control at 62.5 g/ha / pest or weed control at 250 g/ha: evaluated after 13 days, 100=total damage to plant, 0=no damage to plant; for pest or weed control at 250 g/ha: 250 g ai/ha
Method in brief: as §2

[11] = tested on: redroot pigweed (Amaranthus retroflexus); assay: Test G Post-Emergence Protocol; conditions: Amaranthus retroflexus, post-emergence, 312 h, read-out: Pigweed, Redroot damage rating; for pest or weed control at 15.625 g/ha: 15.625 g ai/ha, evaluated after 13 days (100=total damage to plant; 0=no damage to plant); for pest or weed control at 62.5 g/ha: 62.5 g ai/ha; for pest or weed control at 62.5 g/ha / pest or weed control at 250 g/ha: evaluated after 13 days, 100=total damage to plant, 0=no damage to plant; for pest or weed control at 250 g/ha: 250 g ai/ha
Method in brief: as §2

[12] = tested on: velvetleaf (Abutilon theophrasti); assay: Test G Post-Emergence Protocol; conditions: Abutilon theophrasti, post-emergence, 312 h, read-out: Velvetleaf damage rating; for pest or weed control at 15.625 g/ha: 15.625 g ai/ha, evaluated after 13 days (100=total damage to plant; 0=no damage to plant); for pest or weed control at 62.5 g/ha: 62.5 g ai/ha; for pest or weed control at 62.5 g/ha / pest or weed control at 250 g/ha: evaluated after 13 days, 100=total damage to plant, 0=no damage to plant; for pest or weed control at 250 g/ha: 250 g ai/ha
Method in brief: as §2

Row | SMILES | pest or weed control at 15.625 g/ha [1] | pest or weed control at 62.5 g/ha [1] | pest or weed control at 250 g/ha [1] | plant injury at 15.625 g/ha [2] | plant injury at 62.5 g/ha [2] | plant injury at 250 g/ha [2] | pest or weed control at 15.625 g/ha [3] | pest or weed control at 62.5 g/ha [3] | pest or weed control at 250 g/ha [3] | pest or weed control at 15.625 g/ha [4] | pest or weed control at 62.5 g/ha [4] | pest or weed control at 250 g/ha [4] | pest or weed control at 15.625 g/ha [5] | pest or weed control at 62.5 g/ha [5] | pest or weed control at 250 g/ha [5] | pest or weed control at 15.625 g/ha [6] | pest or weed control at 62.5 g/ha [6] | pest or weed control at 250 g/ha [6] | pest or weed control at 15.625 g/ha [7] | pest or weed control at 62.5 g/ha [7] | also measured
1 | CN1C[C@H](c2ccc(C(F)F)cc2)[C@@H](C(=O)Nc2cccc(F)c2F)C1=O (racemic) [Compound 1728] | 70% | 90% | 90% | 30% | 80% | 80% | 80% | 90% | 90% | 0% | 30% | 80% | 30% | 80% | 80% | 40% | 60% | 80% | 70% | 80% | pest or weed control at 250 g/ha [7]: 80%; plant injury at 15.625 g/ha [8]: 60%; plant injury at 62.5 g/ha [8]: 60%; plant injury at 250 g/ha [8]: 80%; pest or weed control at 15.625 g/ha [9]: 80%; pest or weed control at 62.5 g/ha [9]: 80%; pest or weed control at 250 g/ha [9]: 80%; pest or weed control at 15.625 g/ha [10]: 0%; pest or weed control at 62.5 g/ha [10]: 20%; pest or weed control at 250 g/ha [10]: 70%; pest or weed control at 15.625 g/ha [11]: 20%; pest or weed control at 62.5 g/ha [11]: 0%; pest or weed control at 250 g/ha [11]: 80%; pest or weed control at 15.625 g/ha [12]: 30%; pest or weed control at 62.5 g/ha [12]: 30%; pest or weed control at 250 g/ha [12]: 60%
2 | CN1C[C@H](c2ccc(C(F)(F)F)cc2)[C@@H](C(=O)Nc2cnccc2[N+](=O)[O-])C1=O (racemic) [Compound 1729] | 0% | 0% | 0% | 0% | 0% | 0% | 0% | 0% | 0% | 0% | 0% | 0% | 0% | 0% | 0% | 0% | 0% | 0% | 0% | 0% | pest or weed control at 250 g/ha [7]: 0%; plant injury at 15.625 g/ha [8]: 0%; plant injury at 62.5 g/ha [8]: 0%; plant injury at 250 g/ha [8]: 0%; pest or weed control at 15.625 g/ha [9]: 0%; pest or weed control at 62.5 g/ha [9]: 0%; pest or weed control at 250 g/ha [9]: 0%; pest or weed control at 15.625 g/ha [10]: 0%; pest or weed control at 62.5 g/ha [10]: 0%; pest or weed control at 250 g/ha [10]: 0%; pest or weed control at 15.625 g/ha [11]: 0%; pest or weed control at 62.5 g/ha [11]: 0%; pest or weed control at 250 g/ha [11]: 0%; pest or weed control at 15.625 g/ha [12]: 0%; pest or weed control at 62.5 g/ha [12]: 0%; pest or weed control at 250 g/ha [12]: 0%
